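Following 48 hours of exposure in 96-well plates, responses at five concentrations were used to interpolate endpoints linearly. GI50 is the concentration that inhibits growth by half.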 Active and inactive are the calls of the source. Rule as the data show it: active = GI50 up to about 1.1 µM and inactive = higher.
Key:
Experiment in all cases: inhibition of tumour cell growth, NCI panel, 48 h
UACC-257 = test system: UACC-257
T47D = test system: T47D
CCRF-CEM = test system: CCRF-CEM
OVCAR-3 = test system: OVCAR-3
HCT-15 = test system: HCT-15
EKVX = test system: EKVX
UACC-62 = test system: UACC-62
Hs-578T = test system: Hs-578T
HOP-92 = test system: HOP-92
HCT-116 = test system: HCT-116
PC-3 = test system: PC-3
HCC 2998 = test system: HCC 2998
SK-MEL-2 = test system: SK-MEL-2
OVCAR-8 = test system: OVCAR-8
TK-10 = test system: TK-10
A549 = test system: A549
MOLT-4 = test system: MOLT-4
SW-620 = test system: SW-620
NCI-H460 = test system: NCI-H460

| SMILES | GI50 (UACC-257) | GI50 (T47D) | GI50 (CCRF-CEM) | GI50 (OVCAR-3) | GI50 (HCT-15) [µM] | GI50 (EKVX) | GI50 (UACC-62) | GI50 (Hs-578T) | GI50 (HOP-92) | GI50 (HCT-116) | GI50 (PC-3) | GI50 (HCC 2998) | GI50 (SK-MEL-2) | GI50 (OVCAR-8) | GI50 (TK-10) | GI50 (A549) | GI50 (MOLT-4) | GI50 (SW-620) | GI50 (NCI-H460) |
| --- | --- | --- | --- | --- | --- | --- | --- | --- | --- | --- | --- | --- | --- | --- | --- | --- | --- | --- | --- |
| Cc1cccc2c(O)c3c(O)cc(O)cc3nc12 | > 10 µM (inactive) | > 10 µM (inactive) | > 10 µM (inactive) | > 10 µM (inactive) | > 10 | > 10 µM (inactive) | > 10 µM (inactive) | > 10 µM (inactive) | > 10 µM (inactive) | > 10 µM (inactive) | > 10 µM (inactive) | > 10 µM (inactive) | > 10 µM (inactive) | > 10 µM (inactive) | > 10 µM (inactive) | > 10 µM (inactive) | > 10 µM (inactive) | > 10 µM (inactive) | > 10 µM (inactive) |
| CCCCCCCCCCCCCCCCCCNc1ccn(C2OC(COP(=O)(O)OCC(COP(=O)(O)OCC3OC(n4cc(C)c(=O)[nH]c4=O)CC3N=[N+]=[N-])OCCCCCCCCCCCCCCCCCC)C(O)C2O)c(=O)n1 (stereo unspecified) | 50.1 µM (inactive) | 46.7 µM (inactive) | > 100 µM (inactive) | > 100 µM (inactive) | 34 | > 100 µM (inactive) | 49.5 µM (inactive) | > 100 µM (inactive) | 20.3 µM (inactive) | 56.8 µM (inactive) | 29.4 µM (inactive) | 99.1 µM (inactive) | > 100 µM (inactive) | 60.5 µM (inactive) | > 100 µM (inactive) | 51.6 µM (inactive) | 41.5 µM (inactive) | > 100 µM (inactive) | 54.3 µM (inactive) |
| O=C1N[C@H]2C(=O)c3c(Br)sc(Br)c3[C@H]2O1 | 8.07 µM (inactive) | 14.3 µM (inactive) | 1.31 µM (inactive) | 3.11 µM (inactive) | 1.95 | 5.69 µM (inactive) | 13.6 µM (inactive) | 18.7 µM (inactive) | 14.6 µM (inactive) | 2.77 µM (inactive) | 4.95 µM (inactive) | 11.7 µM (inactive) | 14.7 µM (inactive) | 3.82 µM (inactive) | 22 µM (inactive) | 19.4 µM (inactive) | 2.25 µM (inactive) | 2.17 µM (inactive) | 16.8 µM (inactive) |
| CCOC(=O)C(Cc1ccc(OC(=O)c2ccc(OC)cc2OC)cc1)NC(=O)C(F)(F)F (stereo unspecified) | 15.3 µM (inactive) | 23.8 µM (inactive) | 19.2 µM (inactive) | 19.5 µM (inactive) | 21.1 | 21.4 µM (inactive) | 16.1 µM (inactive) | 27.5 µM (inactive) | 23.1 µM (inactive) | 34.1 µM (inactive) | 21.8 µM (inactive) | 16.5 µM (inactive) | 24.6 µM (inactive) | 22.8 µM (inactive) | 22.2 µM (inactive) | 36.2 µM (inactive) | 16.8 µM (inactive) | > 100 µM (inactive) | 34.8 µM (inactive) |
| COC(=O)/C=C/C(=O)Nc1cc(Cl)c(Cl)cc1CC(=O)N(C)[C@H]1CCCC[C@@H]1N1CCCC1 | 3.05 µM (inactive) | 8.73 µM (inactive) | 2.79 µM (inactive) | 3.27 µM (inactive) | 11.4 | 13.1 µM (inactive) | 13.9 µM (inactive) | 18.1 µM (inactive) | 5.74 µM (inactive) | 6.5 µM (inactive) | 5.05 µM (inactive) | 7.67 µM (inactive) | 7.29 µM (inactive) | 5.27 µM (inactive) | 2.29 µM (inactive) | 21.5 µM (inactive) | 3.18 µM (inactive) | 3.63 µM (inactive) | 17.3 µM (inactive) |
| Cc1ccc([N+](=O)[O-])cc1S(=O)(=O)Nc1ccc(C2=NOC(c3cccs3)C2)cc1 (stereo unspecified) | 16.9 µM (inactive) | 12.8 µM (inactive) | 8.93 µM (inactive) | 5.19 µM (inactive) | 4.75 | 19.9 µM (inactive) | 3.78 µM (inactive) | 20 µM (inactive) | 19.9 µM (inactive) | 11.1 µM (inactive) | 8.93 µM (inactive) | 9.25 µM (inactive) | 4.81 µM (inactive) | 22.9 µM (inactive) | 16.4 µM (inactive) | 12.1 µM (inactive) | 4.04 µM (inactive) | 7.5 µM (inactive) | 9.66 µM (inactive) |
| COCn1c(=O)n(C)c(=O)c2c1nc1c(c(=O)n(C)c(=O)n1COC)[n+]2[O-] | 18.2 µM (inactive) | 3.13 µM (inactive) | 5.37 µM (inactive) | 10.6 µM (inactive) | 4.22 | 7.85 µM (inactive) | 7.01 µM (inactive) | 8.55 µM (inactive) | 3.61 µM (inactive) | 10.6 µM (inactive) | 5.07 µM (inactive) | 5.33 µM (inactive) | 12.6 µM (inactive) | 5.7 µM (inactive) | 8.69 µM (inactive) | 23.4 µM (inactive) | 4.19 µM (inactive) | 11.1 µM (inactive) | 3.15 µM (inactive) |
| CCOC(=O)Nc1cc2c(c(N)n1)N=C(c1ccc3ccccc3c1)CN2 | 0.815 µM (active) | 22.8 µM (inactive) | 0.015 µM (active) | 0.0494 µM (active) | 0.0189 | 2.51 µM (inactive) | 0.0328 µM (active) | 0.0302 µM (active) | 0.275 µM (active) | 0.0225 µM (active) | 0.0407 µM (active) | 0.215 µM (active) | 0.373 µM (active) | < 0.0208 µM (active) | 4.36 µM (inactive) | 0.299 µM (active) | 0.0226 µM (active) | 0.0485 µM (active) | 0.0918 µM (active) |
| O=C(NNCC(F)(F)F)c1ccncc1 | > 100 µM (inactive) | > 100 µM (inactive) | > 100 µM (inactive) | > 100 µM (inactive) | > 100 | > 100 µM (inactive) | > 100 µM (inactive) | > 100 µM (inactive) | > 100 µM (inactive) | > 100 µM (inactive) | > 100 µM (inactive) | > 100 µM (inactive) | > 100 µM (inactive) | > 100 µM (inactive) | > 100 µM (inactive) | > 100 µM (inactive) | > 100 µM (inactive) | > 100 µM (inactive) | > 100 µM (inactive) |
| Cc1c(/N=N/c2ccc([N+](=O)[O-])cc2)nc2scc(-c3ccccc3)n12 | > 100 µM (inactive) | > 70.8 µM (inactive) | 21.7 µM (inactive) | > 100 µM (inactive) | 31.6 | > 100 µM (inactive) | > 65.6 µM (inactive) | > 78.7 µM (inactive) | > 100 µM (inactive) | > 100 µM (inactive) | 68.5 µM (inactive) | > 100 µM (inactive) | > 100 µM (inactive) | 71.6 µM (inactive) | > 74.6 µM (inactive) | > 100 µM (inactive) | 19.6 µM (inactive) | > 80.2 µM (inactive) | 71.9 µM (inactive) |
| CC1OC(OC2C(OC(=O)[C@]34CCC(C)(C)C[C@H]3C3=CC[C@@H]5[C@@]6(C)CC[C@H](OC7OC(CO)C(O)C(O)C7OC7OC(CO)C(O)C(O)C7O)C(C)(C)[C@@H]6CC[C@@]5(C)[C@]3(C)CC4)OCC(O)C2O)C(O)C(O)C1OC1OCC(O)C(O)C1O (stereo partly specified) | 2.51 µM (inactive) | 15.4 µM (inactive) | 18.5 µM (inactive) | 23.9 µM (inactive) | 15.7 | 5 µM (inactive) | 16.9 µM (inactive) | 20.7 µM (inactive) | 6.85 µM (inactive) | 11 µM (inactive) | 12.4 µM (inactive) | 1.98 µM (inactive) | 6.32 µM (inactive) | 16.5 µM (inactive) | 8.51 µM (inactive) | 6.37 µM (inactive) | 16.4 µM (inactive) | 16.1 µM (inactive) | 24.4 µM (inactive) |
| O=C(Cc1nc2ccc([N+](=O)[O-])cc2nc1O)C(=O)Nc1cc(Cl)c(Cl)cc1Cl | > 100 µM (inactive) | > 100 µM (inactive) | > 100 µM (inactive) | > 100 µM (inactive) | > 100 | 54.3 µM (inactive) | > 100 µM (inactive) | > 100 µM (inactive) | > 100 µM (inactive) | > 100 µM (inactive) | > 100 µM (inactive) | > 100 µM (inactive) | > 100 µM (inactive) | > 100 µM (inactive) | > 100 µM (inactive) | > 100 µM (inactive) | 51.4 µM (inactive) | > 100 µM (inactive) | > 100 µM (inactive) |
| CC1c2ccccc2Cn2cc3c(c21)C(=O)c1cccc(OP(=O)(O)OCc2ccccc2)c1C3=O (stereo unspecified) | > 100 µM (inactive) | 51.6 µM (inactive) | > 56 µM (inactive) | > 100 µM (inactive) | > 100 | > 66.1 µM (inactive) | > 100 µM (inactive) | > 100 µM (inactive) | > 100 µM (inactive) | > 100 µM (inactive) | > 100 µM (inactive) | > 100 µM (inactive) | > 100 µM (inactive) | > 100 µM (inactive) | > 100 µM (inactive) | > 100 µM (inactive) | > 100 µM (inactive) | > 100 µM (inactive) | > 100 µM (inactive) |
| CC(C)C(C/C=C1/CC(CO)(COC(=O)c2ccccc2)OC1=O)C(C)C (stereo unspecified) | 24.8 µM (inactive) | 15.6 µM (inactive) | 16.8 µM (inactive) | 17.5 µM (inactive) | 20 | 19.2 µM (inactive) | 23.9 µM (inactive) | 7.43 µM (inactive) | 17.5 µM (inactive) | 16 µM (inactive) | 13.6 µM (inactive) | 18.8 µM (inactive) | > 100 µM (inactive) | 22.4 µM (inactive) | 16.5 µM (inactive) | 12.4 µM (inactive) | 11.8 µM (inactive) | 16.4 µM (inactive) | 17 µM (inactive) |

— ChEMBL document CHEMBL1201862, “PubChem BioAssay data set” (2004)
